Measurements: patent US20040141912A1, “Method for targeting chemical compounds to cells and pharmaceutical compositions used therein” (priority 2001, published 2004)
“Also recorded” adds a separate entry of the source.

Columns and labels:
Format in all cases: cell-based, human
[1] = FACS analysis of DDC uptake by control and activated platelets; details: DDC 5 μM, 5 min
Description: (§1) FIG. 6: Control and activated platelets were co-incubated with DDC (at a final concentration of 5 μM under three different conditions: no further treatment; Ca^2+-deprivation due to incubation with BAPTA and EGTA; and restoration of Ca^2+ following re-addition of Ca^2+ and calcium-ionophore A23187. Platelets were then subjected to FACS analysis.
(§2) The selective binding of DDC to activated platelets was determined using flow cytometric (FACS) analysis. Platelet rich plasma was obtained from healthy volunteers. 10^9 fresh platelets were centrifuged (5 minutes, 380×g), washed and re-suspended in Tyrode's buffer (137 mM NaCl; 2.8 mM KCl; 1 mM MgCl2, 12 mM NaHCO3; 0.4 mM Na2HPO4; 5.5 mM D-glucose and 10 mM Hepes pH 7.4; 0.35% BSA). Control platelets were kept on ice.
(§3) For activation, 200 μl of washed platelets were incubated with the calcium ionophore A23187 in the presence of 5 mM of CaCl2, at room temperature. Following incubation, platelets were centrifuged (2 min., 10^4 rpm) and re-suspended in 1 ml of Tyrode's buffer. Activated platelets were subsequently incubated with 5 μM of DDC for 5 minutes at room temperature, under three different conditions: (i). without any further treatment; (ii). under conditions of Ca^2+-deprivation, induced by 20 μM of BAPTA and 1 mM of EGTA (for 30 min. at 4° C.); (iii). upon restoration of Ca^2+, wherein platelet intracellular Ca^2+ levels were replenished by addition of 1 mM of CaCl2 and 2 μM of the calcium ionophore A23187. Non-activated platelets served as control. Platelets were subjected to flow cytometric (FACS) analysis using Becton-Dickinson cell sorter and CellQuest software. Excitation was at 360 nm and emission was measured at 530 nm.

activated platelets = experiment: as above
Description: as §1, §2, §3

Jurkat cells [2] = experiment: FACS analysis of NST830 uptake by Jurkat cells induced to undergo apoptosis by anti-Fas antibody (PI co-staining); details: upper right quadrant
Description: FIG. 7 Jurkat cells were induced to undergo apoptosis by anti-Fas Ab treatment as described for FIG. 3 above. Subsequently, cells were incubated with 50 μM of NST830 for 5 minutes, co-stained with PI and subjected to FACS analysis. In order to inhibit PLS in apoptotic cells, two approaches were used:
(i). Ca^2+-deprivation: apoptotic cells were incubated for 30 min at room temperature in the presence of BAPTA (20 μM) and EGTA (1 mM), and then treated with NST830 and PI as above.
(ii). PLS inhibition by rottlerin: prior to treatment with NST830 and PI, apoptotic cells were incubated for 40 min in the presence of 0.5 μM of rottlerin, and then submitted to FACS analysis.
Cultured Jurkat cells were induced to undergo apoptosis by anti-Fas antibody (0.1 μg/ml) for 2.5 hours, as described in Example 1. Subsequently, both control and apoptotic cells were incubated with 50 μM of NST830 for 5 minutes, and uptake was measured by FACS. Prior to FACS analysis, cells were also co-stained with PI. Induction of apoptosis was associated with the emergence of a large, distinct population of 64% of cells in the early stages of the apoptotic process, selectively binding NST830 and occupying the right lower quadrant of the plot. No substantial change was observed under these conditions in the percentage of cells in late apoptosis, that are unselectively permeable to PI and NST830. […]

Jurkat cells [3] = experiment: FACS analysis of DDC uptake by Jurkat cells induced to undergo apoptosis by staurosporine
Description: FIG. 8: Jurkat cells were induced to undergo apoptosis by treatment with staurosporine. Subsequently, these cells were treated with DDC. The relative change in DDC uptake by cells in early versus late stages of apoptosis, following induction and inhibition of the PLS system is presented. Shown are the percents of positive early or late apoptotic events (mean values), calculated from 3 independent experiments, and wherein the events (either early or late) observed in apoptotic culture are regarded as 100%. Selective accumulation of DDC in early, but not in late apoptotic cells was detected as a result of staurosporine treatment. Ca^2+-deprivation or rottlerin treatment were performed as described in FIG. 1.
The selective uptake of DDC by apoptotic cells is not dependent upon the type of apoptotic trigger. […] Staurosporine acts in an apoptotic pathway which is largely distinct from that of anti-Fas Ab. Jurkat cells were grown as described in Example 1, and were subsequently treated for 4 hours with 1 μM of staurosporine (S4400; Sigma, USA). After induction of apoptosis, cells were treated with DDC (250 μM) for 5 minutes, and were then co-stained with PI and subjected to FACS analysis. Non-treated cells served as control.

## CN(C)c1cccc2c(S(=O)(=O)NC(CSSCC(NS(=O)(=O)c3cccc4c(N(C)C)cccc34)C(=O)O)C(=O)O)cccc12 (stereo not shown) [DDC]
[1]
  DDC uptake (fluorescence intensity), control non-activated platelets: low levels of fluorescence intensity; also recorded: only minimal uptake of DDC
Activated platelets; BAPTA 20 μM + EGTA 1 mM, 30 min, 4° C.
  DDC uptake (fluorescence intensity), activated platelets under Ca2+-deprivation: markedly reduced DDC uptake; also recorded: uptake of DDC was inhibited
Activated platelets; CaCl2 1 mM + A23187 2 μM after deprivation
  DDC uptake (fluorescence intensity), activated platelets upon restoration of Ca2+: completely restored; also recorded: fluorescence returned to the high values
Activated platelets; activated with A23187 + 5 mM CaCl2, DDC 5 μM, 5 min
  DDC uptake (fluorescence intensity), activated platelets: significant shift to higher fluorescence values; also recorded: marked enhancement of fluorescence as compared to controls; also recorded: marked shift to higher fluorescence levels; also recorded: marked shift to higher fluorescence intensity
Jurkat cells [2]; BAPTA + EGTA
  NST830-binding, PI-permeable late apoptotic cells upon Ca2+-deprivation: unaffected
Jurkat cells [2]; rottlerin 0.5 μM
  NST830-binding, PI-permeable late apoptotic cells in the presence of rottlerin: no change was detected
Jurkat cells [3]; control non-treated cells, mean of 3 experiments, DDC 250 μM 5 min
  Positive early apoptotic events for DDC (apoptotic culture regarded as 100%): 36%
Jurkat cells [3]; staurosporine 1 μM 4 h apoptotic cells
  Positive early apoptotic events for DDC (apoptotic culture regarded as 100%): 100%
Jurkat cells [3]; staurosporine-treated cells, Ca2+-deprivation
  Positive early apoptotic events for DDC (apoptotic culture regarded as 100%): 14%
Jurkat cells [3]; staurosporine-treated cells, rottlerin treatment
  Positive early apoptotic events for DDC (apoptotic culture regarded as 100%): 30%
